Starred links: 1 amine or outer side, 2 acyl side, 3 side chain; linkers in the order of their positions; H or OH if unused. Residues, ends and D or L forms follow the SMILES beside them. Groups on a side chain read outwards from the residue. *: point of attachment. Morpholide = C1CN(*)CCO1; Cbz = O=C(OCc1ccccc1)*; CO = O=C([*:1])[*:2]
Target: T1, integrin VLA-4, expressed on the Jurkat J6 (human lymphoblast cell line) cell membrane with VCAM-1 (Homo sapiens, UniProt P05556+P13612)
T1 construct: integrin VLA-4, expressed on the Jurkat J6 (human lymphoblast cell line) cell membrane; endogenous in cells; host or cells: Jurkat J6 cells (integrin). zzVCAM-1 was made in house in Drosophila melanogaster S2 cells
T1 sequence (P13612 34-1032): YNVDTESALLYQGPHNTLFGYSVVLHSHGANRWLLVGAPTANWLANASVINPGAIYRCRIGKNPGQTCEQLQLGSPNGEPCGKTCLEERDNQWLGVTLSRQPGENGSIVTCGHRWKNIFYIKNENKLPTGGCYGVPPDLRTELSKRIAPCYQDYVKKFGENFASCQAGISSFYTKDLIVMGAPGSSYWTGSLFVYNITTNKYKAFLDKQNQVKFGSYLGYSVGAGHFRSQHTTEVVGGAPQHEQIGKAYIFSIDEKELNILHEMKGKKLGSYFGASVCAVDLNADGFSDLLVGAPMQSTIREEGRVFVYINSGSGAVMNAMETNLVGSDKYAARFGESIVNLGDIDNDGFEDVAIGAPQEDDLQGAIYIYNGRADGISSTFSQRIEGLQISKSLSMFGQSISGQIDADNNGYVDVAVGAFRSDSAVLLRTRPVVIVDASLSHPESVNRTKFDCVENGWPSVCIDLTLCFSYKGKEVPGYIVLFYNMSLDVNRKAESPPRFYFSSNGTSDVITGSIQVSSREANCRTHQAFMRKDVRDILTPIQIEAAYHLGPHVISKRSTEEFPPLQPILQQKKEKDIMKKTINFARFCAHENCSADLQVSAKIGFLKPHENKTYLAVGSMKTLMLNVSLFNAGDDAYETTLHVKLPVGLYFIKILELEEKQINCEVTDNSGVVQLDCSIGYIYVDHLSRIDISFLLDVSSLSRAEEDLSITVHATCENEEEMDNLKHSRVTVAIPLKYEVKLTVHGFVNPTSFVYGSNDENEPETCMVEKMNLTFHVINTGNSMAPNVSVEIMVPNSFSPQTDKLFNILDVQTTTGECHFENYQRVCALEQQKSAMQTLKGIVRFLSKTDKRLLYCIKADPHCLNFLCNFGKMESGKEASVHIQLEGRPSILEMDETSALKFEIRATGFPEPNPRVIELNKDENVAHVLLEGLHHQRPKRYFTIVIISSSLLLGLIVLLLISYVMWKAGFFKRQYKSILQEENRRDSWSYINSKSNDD
T1 sequence (P05556 21-798): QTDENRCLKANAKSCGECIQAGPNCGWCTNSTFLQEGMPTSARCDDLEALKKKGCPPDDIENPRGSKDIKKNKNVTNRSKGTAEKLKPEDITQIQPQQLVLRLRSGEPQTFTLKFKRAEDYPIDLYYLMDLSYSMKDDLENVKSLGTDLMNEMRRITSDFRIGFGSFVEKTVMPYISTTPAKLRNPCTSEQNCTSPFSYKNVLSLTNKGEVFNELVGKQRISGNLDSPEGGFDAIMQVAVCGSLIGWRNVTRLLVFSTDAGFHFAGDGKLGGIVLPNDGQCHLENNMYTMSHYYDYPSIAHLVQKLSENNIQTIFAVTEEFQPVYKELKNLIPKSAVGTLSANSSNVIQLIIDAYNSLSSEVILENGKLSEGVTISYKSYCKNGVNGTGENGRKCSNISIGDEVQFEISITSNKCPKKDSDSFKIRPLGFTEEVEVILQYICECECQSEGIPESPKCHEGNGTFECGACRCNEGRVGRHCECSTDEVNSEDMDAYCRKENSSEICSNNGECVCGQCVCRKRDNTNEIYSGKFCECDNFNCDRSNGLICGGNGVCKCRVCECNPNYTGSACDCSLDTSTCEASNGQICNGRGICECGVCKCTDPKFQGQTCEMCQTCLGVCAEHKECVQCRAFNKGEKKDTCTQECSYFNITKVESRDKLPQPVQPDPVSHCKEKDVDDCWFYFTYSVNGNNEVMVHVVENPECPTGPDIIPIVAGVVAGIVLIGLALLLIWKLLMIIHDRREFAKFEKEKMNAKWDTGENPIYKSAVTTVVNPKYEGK
Test: Jurkat J6/VCAM-1 adhesion assay
Assay type: cell-based
Conditions: Jurkat J6 cell adhesion to VCAM-1, 1 mM MnCl2; mean of n experiments
Method: (1) Jurkat J6/VCAM-1 Adhesion Assay
This assay was used to investigate the interaction of the integrin VLA-4, expressed on the Jurkat J6 (human lymphoblast cell line) cell membrane with VCAM-1. Polystyrene 96-well microtitre plates were coated with human immunoglobulin G (IgG; Sigma Chemicals, UK, Product No. 14506) at a concentration of 0.05 mg ml^−1 in bicarbonate buffer (36 mM NaHCO3 and 22 mM Na2CO3, prepared in Dulbecco's phosphate buffered saline at pH 9.8 (PBS); Sigma Chemicals, UK, Product No. 14190-094) for 2 hours at 37° C. This solution was then aspirated and the plates were washed twice with PBS.
VCAM-1 was prepared by cloning its constituent seven domains into a Drosophila expression system with a zz (Protein A) tag. This zzVCAM-1 was then expressed from Drosophila melanogaster S2 cell culture, induced with copper. Protease inhibitors were added and the culture supernatant was clarified either by filtration through a 0.2 μm filter or by centrifugation. The zzVCAM-1 was then purified from this clarified medium using an IgG agarose column, equilibrated with either 20 mM sodium phosphate pH 7.2 alone or in the presence of 0.5M sodium chloride. Elution of zzVCAM-1 from the column was mediated using 3M ammonium thiocyanate, which was subsequently removed using a G25 desalting column, equilibrated with 20 mM sodium phosphate, pH 7.2. The purified zzVCAM-1 was then concentrated to a small volume (Amicon stirred cell concentrators) until a concentration of 62.5 ng ml^−1 was obtained, calculated using the extinction coefficient value.
This solution of zzVCAM-1 was then incubated overnight at 4° C. in the IgG coated microtitre plates with 3% bovine serum albumin (BSA) in PBS, followed by aspiration and two further washes with PBS. A concentration of the Jurkat J6 cells (6×10^6 cels ml^−1), grown in cell media RPMI 1640 (HyClone Ltd, Product No. B-9106-L) supplemented with 10% heat inactivated fetal calf serum (FCS; Gibco BRL, Product No. 10099-075) and 2 mM L-glutamine, were labelled with 10 μM of the fluorescent dye, 2′, 7′-bis(2-carboxyethyl)-5-(e6)-carboxyfluorescein acetoxymethyl ester (BCECF-AM; Molecular Probes Inc, Product No. B-1150) at 37° C. for 10 minutes. The excess dye was then removed by centrifugation at 500×g for 5 minutes and the cells were resuspended at a concentration of 1.2×10^7 cells ml^−1 in Hank's balanced salt solution (HBSS; Gibco BRL, Product No. 14190-094).
Equal volumes of compounds (dissolved in an appropriate solvent and diluted in HBSS containing 1 mM MnCl2) and the labelled Jurkat J6 cells, were added to the VCAM-1 coated plates and adhesion was allowed to proceed for 30 minutes at 37° C. Non, or loosely adhered cells, were removed by inversion of the plate and blotted with tissue paper. Two washes with PBS and further blotting were then performed, before the addition of 2% detergent (Triton-X®; Sigma Chemicals UK, Product No. X100). Counting was undertaken in a Wallac Viktor™ Fluorimeter, where low fluorescence values were indicative of compounds which had inhibited adhesion. All samples were assayed in singlicate and the following four parameter curve fit, shown by Equation (I) was applied: [formula]
Where a is the minimum, b is the Hill slope, c is the IC50 and d is the maximum. (Maximum and minimum values are those compared to adhesion in the absence of compound and in the presence of the dipotassium salt of 2 mM EDTA; Sigma Chemicals, UK, Product No. ED2P). Data is presented as the mean pIC50 with the standard error of the mean of n experiments.

SMILES	IC50
CC(C)C[C@H](NC(=O)COc1ccccc1C(C)(C)C)C(=O)N[C@@H](Cc1ccc(OC(=O)N2CCN(C(=O)c3ccco3)CC2)cc1)C(=O)O [Example 42, (2S)-2-{[(2S)-2-({2-[2-(Tert-butyl)phenoxy]acetyl}amino)-4-methylpentanoyl]amino}-3-[4-({[4-(2-furoyl)-1-piperazinyl]carbonyl}oxy)phenyl]propanoic acid]	11 nM
CC(C)C[C@H](NC(=O)COc1ccccc1I)C(=O)N[C@@H](Cc1ccc(OC(=O)N2CCC(NC(=O)CC3CCCCC3)CC2)cc1)C(=O)O [Example 8, (2S)-3-{4-[({4-[(2-Cyclohexylacetyl)amino]-1-piperidinyl}carbonyl)oxy]phenyl}-2-[((2S)-2-{[2-(2-iodophenoxy)acetyl]amino}-4-methylpentanoyl)amino]propanoic acid]	42.7 nM
CC(C)C[C@H](NC(=O)COc1ccccc1C(C)(C)C)C(=O)N[C@@H](Cc1ccc(OC(=O)N2CCC(NC(=O)Cc3ccc(Cl)cc3)CC2)cc1)C(=O)O [Example 48, (2S)-2-{[(2S)-2-({2-[2-(Tert-butyl)phenoxy]acetyl}amino)-4-methylpentanoyl]amino}-3-(4-{[(4-{[2-(4-chlorophenyl)acetyl]amino}-1-piperidinyl)carbonyl]oxy}phenyl)propanoic acid]	41.7 nM
CC(C)C[C@H](NC(=O)COc1ccc(C(=O)N2CCCCC2)cc1)C(=O)N[C@@H](Cc1ccc(OC(=O)N2CCC(NC(=O)C(C3CCCCC3)C3CCCCC3)CC2)cc1)C(=O)O [Example 3, (2S)-3-{4-[({4-[(2,2-Dicyclohexylacetyl)amino]-1-piperidinyl}carbonyl)oxy]phenyl}-2-{[(2S)-4-methyl-2-({2-[4-(1-piperidinylcarbonyl)phenoxy]acetyl}amino)pentanoyl]amino}propanoic acid]	41.7 nM
CC(C)C[C@H](NC(=O)COc1ccccc1C(C)(C)C)C(=O)N[C@@H](Cc1ccc(OC(=O)N2CCC(NC(=O)CC3CCCCC3)CC2)cc1)C(=O)O [Example 52, (2S)-2-{[(2S)-2-({2-[2-(Tert-butyl)phenoxy]acetyl}amino)-4-methylpentanoyl]amino}-3-{4-[({4-[(2-cyclohexylacetyl)amino]-1-piperidinyl}carbonyl)oxy]phenyl}propanoic acid]	33.1 nM
CC(C)C[C@H](NC(=O)COc1ccccc1C1CCCCC1)C(=O)N[C@@H](Cc1ccc(OC(=O)N2CCOCC2)cc1)C(=O)O [Example 39, (2S)-2-[((2S)-2-{[2-(2-Cyclohexylphenoxy)acetyl]amino}-4-methylpentanoyl)amino]-3-{4-[(4-morpholinylcarbonyl)oxy]phenyl}propanoic acid]	22.4 nM
CC(C)C[C@H](NC(=O)c1cccc2c1oc1ccccc12)C(=O)N[C@@H](Cc1ccc(OC(=O)N2CCN(C(=O)c3ccco3)CC2)cc1)C(=O)O [Example 11, (2S)-2-({(2S)-2-[(Dibenzo[b,d]furan-4-ylcarbonyl)amino]-4-methylpentanoyl}amino)-3-[4-({[4-(2-furoyl)-1-piperazinyl]carbonyl}oxy)phenyl]propanoic acid]	8.32 nM
CC(C)C[C@H](NC(=O)COc1ccccc1C(=O)c1ccccc1)C(=O)N[C@@H](Cc1ccc(OC(=O)N2CCC(NC(=O)Cc3ccc(Cl)cc3)CC2)cc1)C(=O)O [Example 46, (2S)-2-[((2S)-2-{[2-(2-Benzoylphenoxy)acetyl]amino}-4-methylpentanoyl)amino]-3-(4-{[(4-{[2-(4-chlorophenyl)acetyl]amino}-1-piperidinyl)carbonyl]oxy}phenyl)propanoic acid]	43.7 nM
CC(C)C[C@H](NC(=O)COc1ccccc1C1CCCCC1)C(=O)N[C@@H](Cc1ccc(OC(=O)N2CCC(NC(=O)Cc3ccccc3)CC2)cc1)C(=O)O [Example 55, (2S)-2-[((2S)-2-{[2-(2-Cyclohexylphenoxy)acetyl]amino}-4-methylpentanoyl)amino]-3-{4-[({4-[(2-phenylacetyl)amino]-1-piperidinyl}carbonyl)oxy]phenyl}propanoic acid]	61.7 nM
CC(C)C[C@H](NC(=O)COc1ccccc1C1CCCCC1)C(=O)N[C@@H](Cc1ccc(OC(=O)N2CCC(NC(=O)CC3CCCCC3)CC2)cc1)C(=O)O [Example 56, (2S)-3-{4-[({4-[(2-Cyclohexylacetyl)amino]-1-piperidinyl}carbonyl)oxy]phenyl}-2-[((2S)-2-{[2-(2-cyclohexylphenoxy)acetyl]amino}-4-methylpentanoyl)amino]propanoic acid]	87.1 nM
CC(C)C[C@H](NC(=O)COc1ccccc1I)C(=O)N[C@@H](Cc1ccc(OC(=O)N2CCN(C(=O)c3ccccc3)CC2)cc1)C(=O)O [Example 19, (2S)-3-(4-{[(4-Benzoyl-1-piperazinyl)carbonyl]oxy}phenyl)-2-[((2S)-2-{[2-(2-iodophenoxy)acetyl]amino}-4-methylpentanoyl)amino]propanoic acid]	7.59 nM
CC(C)C[C@H](NC(=O)COc1ccccc1I)C(=O)N[C@@H](Cc1ccc(OC(=O)N2CCC(C(N)=O)CC2)cc1)C(=O)O [Example 26, (2S)-3-[4-({[4-(Aminocarbonyl)-1-piperidinyl]carbonyl}oxy)phenyl]-2-[((2S)-2-{[2-(2-iodophenoxy)acetyl]amino}-4-methylpentanoyl)amino]propanoic acid]	2.95 nM
CC(C)C[C@H](NC(=O)c1cccc2c1oc1ccccc12)C(=O)N[C@@H](Cc1ccc(OC(=O)N2CCC(NC(=O)Cc3ccc(Cl)cc3)CC2)cc1)C(=O)O [Example 49, (2S)-3-(4-{[(4-{[2-(4-Chlorophenyl)acetyl]amino}-1-piperidinyl)carbonyl]oxy}phenyl)-2-({(2S)-2-[(dibenzo[b,d]furan-4-ylcarbonyl)amino]-4-methylpentanoyl}amino)propanoic acid]	44.7 nM
CC(C)C[C@H](NC(=O)COc1ccccc1C(C)(C)C)C(=O)N[C@@H](Cc1ccc(OC(=O)N2CCC(NC(=O)C(C3CCCCC3)C3CCCCC3)CC2)cc1)C(=O)O [Example 53, (2S)-2-{[(2S)-2-({2-[2-(Tert-butyl)phenoxy]acetyl}amino)-4-methylpentanoyl]amino}-3-{4-[({4-[(2,2-dicyclohexylacetyl)amino]-1-piperidinyl}carbonyl)oxy]phenyl}propanoic acid]	155 nM
CC(C)C[C@H](NC(=O)OCc1ccccc1)C(=O)N[C@@H](Cc1ccc(OC(=O)N2CCOCC2)cc1)C(=O)O [Example 40, (2S)-2-[((2S)-2-{[(Benzyloxy)carbonyl]amino}-4-methylpentanoyl)amino]-3-{4-[(4-morpholinylcarbonyl)oxy]phenyl}propanoic acid] (Cbz-Leu-Tyr([CO-Morpholide])-OH)	9.12 nM
Cc1ccccc1OCC(=O)N[C@@H](CC(C)C)C(=O)N[C@@H](Cc1ccc(OC(=O)N2CCC(C(=O)N3CCCCC3)CC2)cc1)C(=O)O [Example 30, (2S)-2-[((2S)-4-Methyl-2-{[2-(2-methylphenoxy)acetyl]amino}pentanoyl)amino]-3-[4-({[4-(1-piperidinylcarbonyl)-1-piperidinyl]carbonyl}oxy)phenyl]propanoic acid]	5.75 nM
CC(C)C[C@H](NC(=O)COc1ccccc1C(C)(C)C)C(=O)N[C@@H](Cc1ccc(OC(=O)N2CCC(C(=O)N3CCCCC3)CC2)cc1)C(=O)O [Example 29, (2S)-2-{[(2S)-2-({2-[2-(Tert-butyl)phenoxy]acetyl}amino)-4-methylpentanoyl]amino}-3-[4-({[4-(1-piperidinylcarbonyl)-1-piperidinyl]carbonyl}oxy)phenyl]propanoic acid]	16.2 nM
